A short description of data set [1]: Chemical stability assessed as half life in PBS at pH 7.4 by HPLC. The format is physicochemical.
The subject of data set [2] is HCT-8. The data set can be described thus: Cytotoxicity against human HCT8 cells by MTT assay. The format is functional, cell-based. Background: Formazan colour is commonly taken as a measure of viable cells.
The subject of another data set is PC-3. The data set can be described thus: Cytotoxicity against human PC3 cells by MTT assay. The format is functional, cell-based.
The next data set concerns MCF7. The data set can be described thus: Cytotoxicity against human MCF7 cells by MTT assay. The class given is functional, cell-based.
Data set [3] has as its system HCT-8. The data set can be described thus: Antitumor activity against human HCT8 xenografted in BALB/c nu/nu mouse assessed as tumor inhibition rate at 10 mg/kg, ip q3d for 3 days. The class given is functional. The settings on record: HCT-8, ip, 72 h, route intraperitoneal. On the technique in general: Xenograft models place foreign cells or tissue in a host animal.

Data set [4] deals with HCT-8. The data set can be described thus: Antitumor activity against human HCT8 xenografted in BALB/c nu/nu mouse assessed as change in body weight at 20 mg/kg, ip q3d for 3 days. The class given is functional. The settings on record: route intraperitoneal.
For data set [5], the system named is Mus musculus. As to the kind of experiment: Toxicity to BALB/c nu/nu mouse assessed as mortality at 10 mg/kg, ip q3d for 3 days. Also on record: dose 10 mg/kg, route intraperitoneal. The settings on record: in vivo, 72 h. The format is organism-based.
The test system of data set [6] is HCT-8. As to the kind of experiment: Antitumor activity against human HCT8 xenografted in BALB/c nu/nu mouse assessed as change in body weight at 10 mg/kg, ip q3d for 3 days. The class given is functional. The settings on record: route intraperitoneal.
For data set [7], the system named is HCT-8. The data set can be described thus: Antitumor activity against human HCT8 xenografted in BALB/c nu/nu mouse assessed as tumor inhibition rate at 20 mg/kg, ip q3d for 3 days. The class given is functional. The settings on record: HCT-8, ip, 72 h, route intraperitoneal.
Data set [8] deals with Mus musculus. The data set can be described thus: Toxicity to BALB/c nu/nu mouse assessed as mortality at 20 mg/kg, ip q3d for 3 days. The class given is organism-based. Also noted: dose 20 mg/kg, route intraperitoneal. The settings on record: in vivo, 72 h.
Data set [9] has as its system HCT-8. As to the kind of experiment: Antitumor activity against human HCT8 xenografted in BALB/c nu/nu mouse assessed as tumor inhibition rate at 5 mg/kg, ip q3d for 3 days. The settings on record: HCT-8, ip, 72 h, route intraperitoneal. The class given is functional.
For data set [10], the system named is HCT-8. The data set can be described thus: Antitumor activity against human HCT8 xenografted in BALB/c nu/nu mouse assessed as change in body weight at 5 mg/kg, ip q3d for 3 days. The format is functional. The settings on record: route intraperitoneal.
The subject of data set [11] is Mus musculus. The data set can be described thus: Toxicity to BALB/c nu/nu mouse assessed as mortality at 5 mg/kg, ip q3d for 3 days. The format is organism-based. Also noted: dose 5 mg/kg, route intraperitoneal. The settings on record: in vivo, 72 h.

Some results are limits rather than exact numbers.

What is called half-life is how long it takes for the measured level to halve. What is called IC50 is the point on the concentration scale where inhibition reaches its midpoint. The low end stands for higher potency, the high end for lower potency. Regarding `CC[C@@]1(OC(=O)CO)C(=O)OCc2c1cc1n(c2=O)Cc2cc3ccccc3nc2-1`, the half-life in data set [1] was over 48 h. The IC50 in the data set with HCT-8 [2] came to 3000 nM; in the data set with PC-3 it was 30 nM; in the data set with MCF7 it was 10400 nM.
Turning to `CC[C@@]1(OC(=O)C(C)n2ccnn2)C(=O)OCc2c1cc1n(c2=O)Cc2cc3ccccc3nc2-1` (stereo partly drawn), in [1], the half-life was 13 h. Besides, the results for the half-maximal inhibitory concentration (IC50) in the data set with HCT-8 [2], with PC-3 and in the data set on MCF7 were 480 nM, 590 nM and 160 nM, respectively.
Take `CC[C@@]1(OC(=O)C(C)n2cncn2)C(=O)OCc2c1cc1n(c2=O)Cc2cc3ccccc3nc2-1` (stereo partly drawn): the half-life in [1] is 14 h. For the same compound, the half-inhibitory concentration (IC50) with HCT-8 [2] came out at 510 nM; in the data set with PC-3 it was 440 nM; with MCF7, 650 nM.
Broadly, the inhibition in vivo is the change of the read-out against control, counted positive when it falls. As for `CC[C@@]1(OC(=O)Cn2ccnc2)C(=O)OCc2c1cc1n(c2=O)Cc2cc3ccccc3nc2-1`, the half-life in data set [1] is 24 h. The inhibition in vivo at 10 mg/kg in the data set on HCT-8 [3] was 27.8%. The IC50 with HCT-8 [2] is 600 nM; in the data set with PC-3 it was 210 nM; in the data set with MCF7, 900 nM. Further, the Activity in the data set with HCT-8 [4] is given as 1%; with Mus musculus [5] it was “Non-toxic”; in the data set with HCT-8 [6], 6%; in the data set on Mus musculus [8], “Non-toxic”. Also, in the data set with HCT-8 [7], the inhibition in vivo at 20 mg/kg was 46.2%.
`CC[C@@]1(OC(=O)Cn2ccnn2)C(=O)OCc2c1cc1n(c2=O)Cc2cc3ccccc3nc2-1`: in data set [1], the half-life was 24 h. The IC50 is 380 nM in the data set on HCT-8 [2], 160 nM with PC-3 and 1200 nM with MCF7.
With `CC[C@@]1(OC(=O)COc2cc(C(F)(F)F)ncn2)C(=O)OCc2c1cc1n(c2=O)Cc2cc3ccccc3nc2-1`, the half-life in [1] is 14 h. Further, the inhibition in vivo at 10 mg/kg in the data set on HCT-8 [3] was 25.4%. Further, the values for the concentration for half-maximal inhibition (IC50) in the data set on HCT-8 [2], with PC-3 and with MCF7 were 1510 nM, 1340 nM and 1790 nM, respectively. Besides, the Activity with HCT-8 [4] is given as 12%; in the data set with Mus musculus [5], “Non-toxic”; in the data set with HCT-8 [6], 36%; in the data set with Mus musculus [8] it was “Non-toxic”. Further, in the data set with HCT-8 [7], the inhibition in vivo at 20 mg/kg stood at 49.3%.
With `CC[C@@]1(OC(=O)C(C)Oc2cc(C(F)(F)F)ncn2)C(=O)OCc2c1cc1n(c2=O)Cc2cc3ccccc3nc2-1` (stereo partly drawn), in data set [1], the half-life was 9 h. Besides, the IC50 with HCT-8 [2] was 1110 nM; in the data set on PC-3 it was 320 nM; with MCF7, 270 nM.
Take `CC[C@@]1(OC(=O)Cn2cccn2)C(=O)OCc2c1cc1n(c2=O)Cc2cc3ccccc3nc2-1`: the half-life in data set [1] was over 48 h. Moreover, the inhibition in vivo at 10 mg/kg in the data set on HCT-8 [3] is 35.3%. The concentration for half-maximal inhibition (IC50) with HCT-8 [2] worked out at 610 nM; in the data set with PC-3 it was 160 nM; in the data set on MCF7, 120 nM. Besides, the Activity in the data set on HCT-8 [4] is recorded as 8%; in the data set with Mus musculus [5] it was “Non-toxic”; with HCT-8 [6], 7%; with Mus musculus [8] it was “Non-toxic”. In addition, in the data set on HCT-8 [7], the inhibition in vivo at 20 mg/kg is 75.6%.
For the compound `CC[C@@]1(OC(=O)C(C)n2cccn2)C(=O)OCc2c1cc1n(c2=O)Cc2cc3ccccc3nc2-1` (stereo partly drawn), in [1], the half-life is over 48 h. Moreover, the inhibition in vivo at 10 mg/kg in the data set with HCT-8 [3] was 77.1%. Further, the IC50 worked out at 230 nM in the data set with HCT-8 [2], 130 nM in the data set with PC-3 and 810 nM in the data set with MCF7. Also, the results for the Activity in the data set on HCT-8 [4], in the data set on Mus musculus [5] and with HCT-8 [6] were -5%, “Non-toxic” and -2%, respectively. Also, the inhibition in vivo at 20 mg/kg in the data set with HCT-8 [7] turned out to be 92.9%.
Regarding `CC[C@@]1(OC(=O)C(C)O)C(=O)OCc2c1cc1n(c2=O)Cc2cc3ccccc3nc2-1` (stereo partly drawn), the IC50 was 820 nM in the data set on HCT-8 [2], 500 nM in the data set on PC-3 and 560 nM with MCF7.
Take `CC[C@@]1(OC(=O)C(C)n2ccnc2)C(=O)OCc2c1cc1n(c2=O)Cc2cc3ccccc3nc2-1` (stereo partly drawn): in data set [1], the half-life was 18 h. Besides, the 50% inhibitory concentration (IC50) is 590 nM in the data set with HCT-8 [2], 380 nM with PC-3 and 110 nM in the data set with MCF7.
For the compound `CC[C@@]1(OC(=O)Cn2cncn2)C(=O)OCc2c1cc1n(c2=O)Cc2cc3ccccc3nc2-1`, the half-life in data set [1] is 45 h. Further, the IC50 stood at 740 nM in the data set with HCT-8 [2], 150 nM in the data set with PC-3 and 690 nM in the data set on MCF7.
Consider `CC[C@@]1(OC(=O)C[n+]2cccc(C(C)=O)c2)C(=O)OCc2c1cc1n(c2=O)Cc2cc3ccccc3nc2-1`, for which the IC50 turned out to be 2580 nM in the data set on HCT-8 [2], 540 nM in the data set on PC-3 and 3450 nM with MCF7.
On to `CC[C@@]1(OC(=O)C[n+]2cccc(C(=O)O)c2)C(=O)OCc2c1cc1n(c2=O)Cc2cc3ccccc3nc2-1`, for which the IC50 was found to be 760 nM with HCT-8 [2], 550 nM in the data set with PC-3 and 2120 nM in the data set with MCF7.
`CC[C@@]1(OC(=O)C[n+]2cccc(C)c2)C(=O)OCc2c1cc1n(c2=O)Cc2cc3ccccc3nc2-1`: the IC50 in the data set with HCT-8 [2] is 3780 nM; in the data set on PC-3 it was 600 nM; in the data set with MCF7, 3760 nM.
With `CC[C@@]1(OC(=O)C[n+]2cccc(CO)c2)C(=O)OCc2c1cc1n(c2=O)Cc2cc3ccccc3nc2-1`, the figures for the IC50 in the data set with HCT-8 [2], in the data set with PC-3 and in the data set on MCF7 were 2090 nM, 800 nM and 2570 nM, respectively.
Taken in the same sequence, the figures for `CC[C@@]1(OC(=O)C[n+]2cccc(O)c2)C(=O)OCc2c1cc1n(c2=O)Cc2cc3ccccc3nc2-1` were 2430 nM, 110 nM and 3800 nM.
For `CC[C@@]1(O)C(=O)OCc2c1cc1n(c2=O)Cc2cc3c(CN(C)C)c(O)ccc3nc2-1` [TOPOTECAN], in the data set on HCT-8 [9], the inhibition in vivo at 5 mg/kg came out at 62%. Further, the inhibition in vivo at 10 mg/kg with HCT-8 [3] was found to be 92.5%. Further, the half-maximal inhibitory concentration (IC50) turned out to be 3660 nM in the data set with HCT-8 [2], 3990 nM with PC-3 and 5550 nM in the data set on MCF7. For the same compound, the Activity with HCT-8 [10] is on record as -3%; in the data set on HCT-8 [6] it was -29%; in the data set with Mus musculus [11], “Non-toxic”.

These data come from ChEMBL document CHEMBL1154520, “Synthesis and antitumor activity of novel 20s-camptothecin analogues” (Bioorg Med Chem Lett, 2009).
